# Several values for one entry are separate records, joined by “and”; a condition that tells them apart may be missing. Equal entries are not always repeated. Where two headings read alike, the source gives them in different places.
# What was measured:
# [1] = system: type L1210 intra-peritoneal lymphoma; test: Mortality of mice carrying type L1210 intra-peritoneal lymphoma; type: in vivo; settings: for Ratio % Treated/controls (T/C%): median survival times; for anti-tumour effectiveness (in words): T/C% greater than 125%
# Description: Mice carrying a type L1210 intra-peritoneal lymphoma were treated for 7 days in parallel with the following preparations: • SYN857 (A): chlorophosphoenol pyruvate • SYN856 (B): chlorophosphoenol pyruvate and carnitine ester • BCNU: carmustine • Vehicle: control
# The weight of the animals for each group as well as the individual weight curves as a function of time were plotted and the mortality of the animals was monitored.
# The parameter T/C% is calculated with the ratio of the median survival time of the animals in the group considered to the median survival time of the animals in the control group, all multiplied by 100.
# Calu-6 [2] = test: Fraction affected (Fa) and synergy index (CI) on lung cell line Calu-6, betaine citrate/metformin; type: cell-based
# Description: The cell line adopted for carrying out the experiment is the line Calu-6.
# These Fa values are used in the calculation of the synergy index (CI) which makes it possible to report the presence or absence of synergy between the products.
# Calu-6 [3] = test: Growth inhibition of Calu-6 cells, products alone (IC50) and in combination (CI, Chou and Talalay); type: cell-based; settings: for IC50 (order of magnitude, in words): the cell lines tested (Calu-6 and NCI-H460)
# Description: (§1) 1) Prior determination of the IC50 of the products taken in isolation on the cell lines.
# (§2) Different concentration ratios were established, which were tested on the different cell lines.
# (§3) For each cell line three tests were carried out.
# NCI-H460 = test: Growth inhibition of NCI-H460 cells, products alone (IC50) and in combination (CI, Chou and Talalay); type: cell-based; settings: Avandia alone
# Description: as §1, §2, §3
# [4] = product alone at 0.10 mM, three experiments
# [5] = product alone at 0.20 mM, three experiments
# [6] = product alone at 1.00 mM, three experiments
# [7] = product alone at 2.00 mM, three experiments
# [8] = product alone at 4.00 mM, three experiments
Compound,anti-tumour effectiveness (in words) ([1]; L1210 lymphoma mice),Fa Exp 1 (Calu-6 [2]; product alone at 0.05 mM),Fa Exp 1 (Calu-6 [2]; product alone at 0.10 mM),Fa Exp 3 (Calu-6 [2]; product alone at 0.10 mM),Average Fa (Calu-6 [2]; [4]),Fa Exp 1 (Calu-6 [2]; product alone at 0.20 mM),Fa Exp 3 (Calu-6 [2]; product alone at 0.20 mM),Average Fa (Calu-6 [2]; [5]),Fa Exp 1 (Calu-6 [2]; product alone at 0.25 mM),Fa Exp 2 (Calu-6 [2]; product alone at 0.25 mM),Fa Exp 3 (Calu-6 [2]; product alone at 0.25 mM),Fa Exp 1 (Calu-6 [2]; product alone at 0.50 mM),Fa Exp 2 (Calu-6 [2]; product alone at 0.50 mM),Fa Exp 3 (Calu-6 [2]; product alone at 0.50 mM),Fa Exp 1 (Calu-6 [2]; product alone at 1.00 mM),Fa Exp 2 (Calu-6 [2]; product alone at 1.00 mM),Fa Exp 3 (Calu-6 [2]; product alone at 1.00 mM),Average Fa (Calu-6 [2]; [6]),Fa Exp 1 (Calu-6 [2]; product alone at 2.00 mM),Fa Exp 2 (Calu-6 [2]; product alone at 2.00 mM),also measured
chlorophosphoenol pyruvate and carnitine ester [SYN856],anti-tumour effectiveness,,,,,,,,,,,,,,,,,,,,"Average number of days of survival ± SD ([1]; 30 mg/kg/inj.): 9.00 ± 0.00 days; Median value ([1]; 30 mg/kg/inj.): 9 days; Ratio % Treated/controls (T/C%) ([1]; 30 mg/kg/inj.): >128.5%; Average number of days of survival ± SD ([1]; 60 mg/kg/inj.): 9.00 ± 0.00 days; Median value ([1]; 60 mg/kg/inj.): 9 days; Ratio % Treated/controls (T/C%) ([1]; 60 mg/kg/inj.): >128.5%; Number of dead mice ([1]; 60 mg/kg/inj., out of 10 mice, at 9 days): 6; effective concentration compared with chlorophosphoenol pyruvate alone (in words) ([1]; L1210 lymphoma mice): effective at a lower concentration than chlorophosphoenol pyruvate alone"
chlorophosphoenol pyruvate [SYN857],anti-tumour effectiveness,,,,,,,,,,,,,,,,,,,,"Average number of days of survival ± SD ([1]; 70 mg/kg/inj.): 8.78 ± 0.42 days; Median value ([1]; 70 mg/kg/inj.): 9 days; Ratio % Treated/controls (T/C%) ([1]; 70 mg/kg/inj.): >128.5%; Number of dead mice ([1]; 70 mg/kg/inj., out of 10 mice, at 9 days): 9; Average number of days of survival ± SD ([1]; 136 mg/kg/inj.): 9.00 ± 00.0 days; Median value ([1]; 136 mg/kg/inj.): 9 days; Ratio % Treated/controls (T/C%) ([1]; 136 mg/kg/inj.): >128.5%; Number of dead mice ([1]; 136 mg/kg/inj., out of 10 mice, at 9 days): 4"
"CN(C)C(=N)N=C(N)N [Met, metformin]",,0.03,0.08,0.04,0.06,0.04,0.06,0.05,0.06,0.06,0.08,0.08,0.09,0.13,0.18,0.19,0.25,0.21,0.03,0.31,Average Fa (Calu-6 [2]): 0.07 and 0.10; Fa Exp 2 (Calu-6 [2]; product alone at 0.20 mM): 0.04; Fa Exp 3 (Calu-6 [2]; product alone at 2.00 mM): 0.36; Average Fa (Calu-6 [2]; [7]): 0.32; Fa Exp 1 (Calu-6 [2]; product alone at 4.00 mM): 0.36; Fa Exp 2 (Calu-6 [2]; product alone at 4.00 mM): 0.40; Fa Exp 3 (Calu-6 [2]; product alone at 4.00 mM): 0.46; Average Fa (Calu-6 [2]; [8]): 0.41
"O=NN(CCCl)C(=O)NCCCl [BCNU ®, carmustine]",,,,,,,,,,,,,,,,,,,,,"Ratio % Treated/controls (T/C%) ([1]; 15 mg/kg/inj.): >128.5%; Number of dead mice ([1]; 15 mg/kg/inj., positive control): 0; Number of dead mice ([1]; 15 mg/kg/inj., positive control, listed as BCNU): still alive"
betaine citrate [Betain citrate],,0.00,0.00,0.00,0.02,0.12,0.00,0.01,0.02,0.08,0.00,0.31,0.15,0.26,0.59,0.18,0.63,0.24,0.69,0.37,"Fa Exp 2 (Calu-6 [2]; product alone at 0.10 mM): 0.02; Average Fa (Calu-6 [2]; product alone at 0.25 mM, three experiments): 0.06; Average Fa (Calu-6 [2]; product alone at 0.50 mM, three experiments): 0.03; Fa Exp 3 (Calu-6 [2]; product alone at 2.00 mM): 0.77; Average Fa (Calu-6 [2]; [7]): 0.47; Fa Exp 1 (Calu-6 [2]; product alone at 4.00 mM): 0.77; Fa Exp 2 (Calu-6 [2]; product alone at 4.00 mM): 0.61; Fa Exp 3 (Calu-6 [2]; product alone at 4.00 mM): 0.83; Average Fa (Calu-6 [2]; [8]): 0.61; IC50 (order of magnitude, in words) (Calu-6 [3]): of the order of a millimol"
"CN(CCOc1ccc(CC2SC(=O)NC2=O)cc1)c1ccccn1 (centres unmarked) [Avandia ®, rosiglitazone]",,,,,,,,,,,,,,,,,,,,,"IC50 (NCI-H460): 8.84 µM; IC50 (Calu-6 [3]; Calu-6, Avandia alone): 14.1 µM; IC50 (order of magnitude, in words) (Calu-6 [3]): of the order of ten micromols"

# — patent US20070280918A1, “Multitherapy Against Cancer” (priority 2004, published 2007)
